Patent US11136300B2, “Crystalline forms of 3-substituted 1,2,4-oxadiazole” (Aurigene Discovery Technologies Limited, priority 2017, dated 2021)
In brackets after ≈: the same amount, converted by molar mass.

Columns and labels:
Assay type in all cases: physicochemical
[1] = Storage of Form 1 at ambient conditions
Method: Formula (I) Form 1 exists at ambient conditions upon short term storage (i.e., less than 8 d). A mixture of formula (I) Forms 1 and 2 (16 mg) was weighed into a glass vial, and tetrahydrofuran (THF, 0.5 mL) was added. The resulting slurry was stirred at room temperature for about 4 d. The wet solids were analyzed by XRPD in transmission mode and confirmed to be crystalline formula (I) Form 1, as shown by XRPD analysis (FIG. 1).

[2] = Equilibrium solubility of formula (I) Form 2 in water; details: for Final Form: solids checked by XRPD after 6 hrs; for solubility at 6 h: thermodynamic from solid, equilibrated 6 hrs, supernatant by HPLC
Method: Equilibrium solubility of formula (I) Form 2 was measured in the water at 20° C. and 30° C. All samples were equilibrated at temperature for 6 hrs, and the solubility of supernatant was measured by HPLC, while the solids were checked by XRPD. (See Table 9.)

[3] = Solid stability of crystalline Form 2 on storage; details: 7-8 days
Method: Samples of formula (I) crystalline Form 2 were stored as solids at 25° C./60% Relative Humidity (RH), 30° C./˜56%, and 40° C./75% RH for 7-8 days. The samples were prepared in duplicate with an offset of 2 weeks. Each replicate was stored in a different container.

Row | time for which the form exists on short term storage [1] | form change during the solubility testing ([2]; 20° C. and 30° C., XRPD (FIG. 6)) | Final Form ([2]; 20° C.) | Final Form ([2]; 30° C.) | solubility at 6 h ([2]; 20° C.) | solubility at 6 h ([2]; 30° C.) | solid form and particle morphology after storage ([3]; 25° C./60% RH) | solid form and particle morphology after storage ([3]; 30° C./~56% RH) | solid form and particle morphology after storage ([3]; 40° C./75% RH) | Structure (SMILES)
1 | less than 8 d |  |  |  |  |  |  |  |  | CC(O)[C@H](NC(=O)N[C@@H](CC(N)=O)c1nc([C@@H](N)CO)no1)C(=O)O (stereo partly drawn) [Form 1]
2 |  | No form change was observed | Form 2 | Form 2 | 148 mg/mL (≈ 410 mM) | 166 mg/mL (≈ 459 mM) | remained unchanged | remained unchanged | remained unchanged | CC(O)[C@H](NC(=O)N[C@@H](CC(N)=O)c1nc([C@@H](N)CO)no1)C(=O)O (stereo partly drawn) [Form 2]
